Key:
Format in all cases: in vivo
[1] = tested on: rat closed femur fracture model; assay: Rat closed femur fracture model, torsion test of femur strength; details: 4 weeks after fracture
Text: A 10-week-old male Wistar rat (Charles River Laboratories Japan, Inc.) was anesthetized by isoflurane inhalation (inhalation of 5%, and retention of 2%), and retained in a supine position. The peripheral portion of the left knee was shaved with a clipper, and disinfected with Hibitane. About 2 cm of the skin of the left knee on the upside of the patella was incised. About 5 mm of the joint capsule was incised along with the outer edge of the patella, and then the patella was dislocated inward from the trochlear groove. A 22G injection needle was inserted into the medullary cavity in the center of the trochlear groove, and pulled out. Into the hole, a Kirschner wire (MIZUHO Corporation) having a diameter of 1 mm, which had been cut to 32 mm in advance was fully inserted in the medullary cavity of the femur. The joint capsule and the incised part of the skin were sutured with nylon suture (Alfresa Pharma Corporation). The left hind limb was fixed to an Einhorn type of bone fracture preparation device (special order item), and mechanical stress was added to the femur by dropping a weight from a predetermined position to prepare the bone fracture. Soft X-ray images of the hind limb were taken by using CT for animals (LCT-200, Hitachi Aloka Medical, Ltd.), and as a result it was confirmed that transverse fracture was prepared in the vicinity of the center of the femur. For the infection prevention, potassium penicillin G (Meiji Seika Pharma Co., Ltd.) was administered intramuscularly. CNP derivative A was administered subcutaneously once a day at a dose of 0.42 mg/kg/day for 7 days from one day after the surgery. Vehicle was administered to the control group. 4 weeks after the preparation of the bone fracture, the animal was anesthetized by isoflurane inhalation, retained in a supine position, and then bled for the euthanasia. The left and right femurs were resected, immersed in a physiological saline solution, and cryopreserved in a freezer. The femurs were thawed at a later date, subjected to torsion test using a bone strength meter (MZ-500S, MARUTO INSTRUMENT CO., LTD.), and the strength of the femur was measured. The test was performed in 12 cases in each group.

rat femur fracture model = assay: Rat femur fracture model, soft X-ray radiography of femurs; details: 10 or 100 nmol/kg s.c. once per day for 8 weeks; FIG. 1
Experimental: A fracture model was surgically prepared at the left femoral diaphysis of a 6-week-old female SD strain (Crl: CD) IGS rat. A barbital-based anesthetic agent (Somnopentyl®, Kyoritsu Seiyaku Corporation) was intraperitoneally administered to an animal in order to anesthetize the animal. Isoflurane (Escain, Mylan Inc.) inhalation anesthesia was performed as an adjunct to anesthesia. The skin on the upside of the knee joint was incised, exfoliation was performed between the rectus femoris muscle and the vastus lateralis muscle to expose the femur. At around 0.5 mm distal from the center of the femoral diaphysis, the diaphysis was completely cut in cross-section by a bone cutter (Osada Equipment Co., Ltd.). […] For the resected bone, the bone length, and the callus size in the fracture site were measured, the left and right femurs were subjected to soft X-ray radiography, and then the healing state in the fracture site was determined. […] At 2, 4, and 6 weeks after the administration, one from each of the cases was sampled for follow-up, further the one in the control group, which had shown nonunion-like symptoms, was excluded from the evaluation, and eventually the results were evaluated as a group of 10 rats.

[2] = tested on: rat closed femur fracture model; assay: Rat closed femur fracture model, callus diameter; details: 0.5 mg/kg/day continuous s.c. for one week; 7 days after fracture; versus vehicle group; FIG. 5B
Experimental: In accordance with the method of Example 2, a rat closed fracture model was prepared. An administration solution was prepared so as to be a dosage corresponding to 0.5 mg/kg/day by using various NPR-B agonists (CNP derivative A, hCNP-53 (SEQ ID NO: 2), CNP derivative C (CNP-36, amino acid Nos. 18 to 53 of SEQ ID NO: 2), and CNP derivative D (Pro-Gly-CNP37, SEQ ID NO: 15)), and then loaded into an osmotic pump (Model 2001, Alzet). The osmotic pump was buried under the skin of the neck back of the animal retained in a supine position, and continuous subcutaneous administration was performed for one week. Vehicle was administered to the control group. 7 days after the preparation of the bone fracture, the animal was subjected to isoflurane inhalation anesthesia, retained in a supine position to open the abdomen, and then subjected to blood collection from the abdominal aorta. EDTA Na was added to the blood, then the EDTA Na-added blood was centrifuged and the plasma separated, and the resultant was cryopreserved. At a later date, the cGMP level in the plasma was measured by a RIA method using a kit (YSI-7702, YAMASA CORPORATION). After blood collection, the animal was bled for the euthanasia, and then the left femur was resected. Each maximum diameter of the sagittal plane and the coronal plane in the callus was measured, and the average value was used as a callus diameter. In accordance with the method of Example 3, the type X collagen gene expression level in the callus was measured. The measurement was performed for 12 cases in each group.

Substance: CNP derivative A: CNP (1-22) Ghrelin (12-28, E17D): SEQ ID NO: 13; SEQ ID NO: 157 of US 2010-305031 (GLSKGCFGLKLDRIGSMSGLGCVQQRKDSKKPPAKLQPR; Chimeric CNP J (SEQ ID NO157) of US2010-305031 and WO2009/142307, and CNP derivative A of current invention.)
- Share of individuals whose fractured left femur showed the reference value (3 N×mm/deg) or more ([1]; 0.42 mg/kg/day s.c. for 7 days, 12 individuals, vehicle 33%): 83%
- Number of individuals whose fractured left femur showed the reference value (3 N×mm/deg) or more ([1]; 0.42 mg/kg/day s.c. for 7 days, out of 12 individuals): 10 individuals
- Healing rate of the fracture ([1]; 0.42 mg/kg/day s.c. for 7 days, versus vehicle): significantly improved
- Strength of the left femur to which bone fracture had been prepared (torsion test stiffness) ([1]; 0.42 mg/kg/day s.c. once a day for 7 days from one day after surgery, 12 cases): almost the same as that of the untreated right femur
- Continuity of the cortical bone in soft X-ray images of femurs (rat femur fracture model): tendency for enhanced continuity of the cortical bone
- Remaining fracture line in soft X-ray images of femurs (rat femur fracture model): decreasing tendency for the fracture line to remain
- Maximum diameter of the callus generated in the left femur [2]: significantly larger

Reference: patent US20150125457A1, “BONE REPAIR PROMOTER” (DAIICHI SANKYO COMPANY, LIMITED, priority 2012, published 2015)
